This is an account of results in US20250011347A1, “NOVEL PLASMALOGEN DERIVATIVE” (Institute of Rheological Function of Food Co., Ltd., priority 2021, published 2025).

One assay concerns MeCP2-deficient mice. Nature of the assay: Survival (lifetime) of MeCP2-deficient mice. The assay is classed as in vivo, mouse. Conditions: male MeCP2-deficient mice from 4 weeks old, 20 ng/g body weight in drinking water twice a week. As to the method:
Four-week-old male MeCP2-deficient mice were used in the experiment. The MeCP2-deficient mice were divided into two groups: a KIT-008 administration group (KO-KIT-008, n=13) and a control group (KO-All, n=28). The body weight of each of the mice in the administration group was measured in advance. The compound KIT-008 was suspended in water by sonication so that KIT-008 was ingested at 20 ng/g body weight, and it was continuously administered in drinking water to each mouse twice a week to verify its survival. The control group was given only water in the same manner.

The next assay concerns c57BL6J mice. Nature of the assay: Water maze test of mice with LPS-induced memory impairment. It is filed as in vivo, mouse. Conditions: 10 mg/50 kg/day in drinking water 4 weeks, then LPS 7 days, Trial 6, P<0.05, FIG. 12. The procedure: Specifically, 8-week-old male c57BL6J mice (5 mice in each group, n=5) were allowed to drink each of the compounds of the present invention (KIT-008 and KIT-020) at a dose of 10 mg/50 kg/day for 4 weeks, and were then subjected to LPS treatment (200 mg/kg/day) for 7 days while allowing them to drink the compound in the same manner. Thereafter, they were subjected to a water maze test for 2 days (3 trials per day).
Escape Latency indicates the time required to arrive at an escape platform (arrival time). Comparisons between groups were performed by ANOVA test and Bonferroni's post hoc test. […] Therefore, the compounds of the present invention are effective in improving brain function (cognitive function).

Assay [1] deals with inducible nitric oxide synthase (iNOS). Description: LPS-induced iNOS expression in mouse hippocampal tissue (immunohistochemistry). It is filed as in vivo. Conditions: c57BL6J mice hippocampal tissue, 10 mg/50 kg/day in drinking water 4 weeks, then LPS 10 days; FIG. 15, 16. As to the method: Specifically, 8-week-old male c57BL6J mice were allowed to drink each of the compounds of the present invention (KIT-008 and KIT-020) at a dose of 10 mg/50 kg/day for 4 weeks, and were then subjected to LPS treatment (200 mg/kg/day) for 10 days while allowing them to drink the compound in the same manner. The mouse brain tissue was subjected to an immunohistochemistry (IHC) study using an anti-NeuN antibody (a neuron marker, Millipore MAB377) and an anti-iNOS antibody (an inflammatory marker, Invitrogen PA1-036). DAPI was used to stain a cell nucleus.
In FIG. 15, the scale bar is 50 μm and the arrows indicate iNOS-positive neurons. The data in FIG. 16 represents the average value for each group (3 mice, n=3). In the LPS group, the number of iNOS-positive neurons increased compared to that in the control group, but in the KIT-008 group and the KIT-020 group, the increase in iNOS-positive neurons caused by LPS was suppressed.

With `CC/C=C\C/C=C\C/C=C\C/C=C\C/C=C\C/C=C\CCC(=O)O[C@H](COC/C=C/CCCCCCCCCCCCCCC)COP(=O)(O)OCCN` [KIT-008, 2-((((R)-2-(((4Z,7Z,10Z,13Z,16Z,19Z)-docosa-4,7,10,13,16,19-hexenoyl)oxy)-3-(((E)-octadec-2-en-1-yl)oxy)propoxy)(hydroxy)phosphoryl)oxy)ethane-1-ammonium 2,2,2-trifluoroacetate], in the assay on MeCP2-deficient mice (FIG. 5), the “survival rate compared with MeCP2-deficient mice not administered” value is recorded as “higher”. For the same molecule, the “number of days until the survival rate reached 50%” value in the assay on MeCP2-deficient mice (control group 64.5 days) stood at 78 days. In the assay with c57BL6J mice, the “memory retention (Escape Latency) compared to the LPS group” value is listed as “improvement in memory retention”. Moreover, in assay [1], the “increase in iNOS-positive neurons caused by LPS” value is “suppressed”.
